Values quoted from earlier work, collected in US20240226128A1, “NOVEL COMPOUNDS WITH DUAL INHIBITION ACTIVITY AGAINST SARS-COV-2 CRITICAL ENZYMES RDRP, MPRO AND HUMAN TMPRSS2” (priority 2022, published 2024).

Tested on: COVID-19
Conditions: high-risk patient including different variants; cited from earlier work

## CC(C)C(=O)OC[C@H]1O[C@@H](n2ccc(NO)nc2=O)[C@H](O)[C@@H]1O [Molnupiravir]
  reduced risk of COVID-19 death: 50%
